Results: PubChem BioAssay (NCI)
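Interpolation was linear, between the two tested concentrations surrounding the appropriate level; five concentrations were tested over 48 hours in 96-well plates. GI50: concentration for 50% inhibition of growth. TGI: total growth inhibition.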

Columns and labels:
Assay in all cases: NCI-60 cell line screen, 48 h
786-0 renal = test system: 786-0 renal
A498 renal = test system: A498 renal
A549 NSCLC = test system: A549 NSCLC
ACHN renal = test system: ACHN renal
BT-549 breast = test system: BT-549 breast
CAKI-1 renal = test system: CAKI-1 renal
CCRF-CEM leukemia = test system: CCRF-CEM leukemia
COLO 205 colon = test system: COLO 205 colon
DU-145 prostate = test system: DU-145 prostate
EKVX NSCLC = test system: EKVX NSCLC
HCC-2998 colon = test system: HCC-2998 colon
HCT-116 colon = test system: HCT-116 colon
HCT-15 colon = test system: HCT-15 colon
HL-60(TB) leukemia = test system: HL-60(TB) leukemia
HOP-62 NSCLC = test system: HOP-62 NSCLC
HOP-92 NSCLC = test system: HOP-92 NSCLC
HS 578T breast = test system: HS 578T breast
HT29 colon = test system: HT29 colon
IGROV1 ovarian = test system: IGROV1 ovarian
K-562 leukemia = test system: K-562 leukemia
KM12 colon = test system: KM12 colon
LOX IMVI melanoma = test system: LOX IMVI melanoma
M14 melanoma = test system: M14 melanoma
MALME-3M melanoma = test system: MALME-3M melanoma
MCF7 breast = test system: MCF7 breast
MDA-MB-231 breast = test system: MDA-MB-231 breast
MDA-MB-435 = test system: MDA-MB-435
MDA-MB-468 breast = test system: MDA-MB-468 breast
MOLT-4 leukemia = test system: MOLT-4 leukemia
NCI-H226 lung = test system: NCI-H226 lung
NCI-H23 lung = test system: NCI-H23 lung
NCI-H460 lung = test system: NCI-H460 lung
NCI-H522 lung = test system: NCI-H522 lung
NCI/ADR-RES ovarian = test system: NCI/ADR-RES ovarian
OVCAR-3 ovarian = test system: OVCAR-3 ovarian
OVCAR-4 ovarian = test system: OVCAR-4 ovarian
OVCAR-5 ovarian = test system: OVCAR-5 ovarian
OVCAR-8 ovarian = test system: OVCAR-8 ovarian
PC-3 prostate = test system: PC-3 prostate
RPMI-8226 leukemia = test system: RPMI-8226 leukemia
RXF 393 renal = test system: RXF 393 renal
SF-268 CNS = test system: SF-268 CNS
SF-295 CNS = test system: SF-295 CNS
SF-539 CNS = test system: SF-539 CNS
SK-MEL-2 melanoma = test system: SK-MEL-2 melanoma
SK-MEL-28 melanoma = test system: SK-MEL-28 melanoma
SK-MEL-5 melanoma = test system: SK-MEL-5 melanoma
SK-OV-3 ovarian = test system: SK-OV-3 ovarian
SN12C renal = test system: SN12C renal
SNB-19 CNS = test system: SNB-19 CNS
SNB-75 CNS = test system: SNB-75 CNS
SR leukemia = test system: SR leukemia
SW-620 colon = test system: SW-620 colon
T-47D breast = test system: T-47D breast
TK-10 renal = test system: TK-10 renal
U251 CNS = test system: U251 CNS
UACC-257 melanoma = test system: UACC-257 melanoma
UACC-62 melanoma = test system: UACC-62 melanoma
UO-31 renal = test system: UO-31 renal

## Cc1ccc(/C=C/C(=O)c2ccc(S(=O)(=O)NCCNc3nc(Nc4ccc(F)cc4)nc(N(C)C)n3)cc2)cc1
786-0 renal
  GI50: 10.5 µM
  TGI: 23.1 µM
A498 renal
  GI50: 12.6 µM
  TGI: 25.5 µM
A549 NSCLC
  GI50: 10.5 µM
  TGI: 28.6 µM
ACHN renal
  GI50: 6.31 µM
  TGI: 18.9 µM
BT-549 breast
  GI50: 15.7 µM
  TGI: 30.1 µM
CAKI-1 renal
  GI50: 6.98 µM
  TGI: 22.6 µM
CCRF-CEM leukemia
  GI50: 5.28 µM
  TGI: > 100 µM
COLO 205 colon
  GI50: 6.51 µM
  TGI: 20.9 µM
DU-145 prostate
  GI50: 14 µM
  TGI: 32.4 µM
EKVX NSCLC
  GI50: 4.96 µM
  TGI: 16.9 µM
HCC-2998 colon
  GI50: 4.5 µM
  TGI: 15.8 µM
HCT-116 colon
  GI50: 1.75 µM
  TGI: 3.28 µM
HCT-15 colon
  GI50: 3.92 µM
  TGI: 10.9 µM
HL-60(TB) leukemia
  GI50: 5.58 µM
  TGI: 32.1 µM
HOP-62 NSCLC
  GI50: 15.3 µM
  TGI: 31.4 µM
HOP-92 NSCLC
  GI50: 7.63 µM
  TGI: 22.2 µM
HS 578T breast
  GI50: 10.7 µM
  TGI: 47.4 µM
HT29 colon
  GI50: 2.38 µM
  TGI: 5.25 µM
IGROV1 ovarian
  GI50: 15.1 µM
  TGI: 31 µM
K-562 leukemia
  GI50: 3.89 µM
  TGI: 25.3 µM
KM12 colon
  GI50: 5.41 µM
  TGI: 24.5 µM
LOX IMVI melanoma
  GI50: 4.12 µM
  TGI: 15.3 µM
M14 melanoma
  GI50: 5.91 µM
  TGI: 19.7 µM
MALME-3M melanoma
  GI50: 16.4 µM
  TGI: 31.6 µM
MCF7 breast
  GI50: 2.01 µM
  TGI: 5.8 µM
MDA-MB-231 breast
  GI50: 6.56 µM
  TGI: 20 µM
MDA-MB-435
  GI50: 6.03 µM
  TGI: 21.6 µM
MDA-MB-468 breast
  GI50: 4.66 µM
  TGI: 17 µM
MOLT-4 leukemia
  GI50: 3.86 µM
  TGI: 48.6 µM
NCI-H226 lung
  GI50: 10.4 µM
  TGI: 25.8 µM
NCI-H23 lung
  GI50: 11.3 µM
  TGI: 23.8 µM
NCI-H460 lung
  GI50: 4.22 µM
  TGI: 15.8 µM
NCI-H522 lung
  GI50: 5.24 µM
  TGI: 18.1 µM
NCI/ADR-RES ovarian
  GI50: 8.39 µM
  TGI: 21.1 µM
OVCAR-3 ovarian
  GI50: 11.3 µM
  TGI: 24.8 µM
OVCAR-4 ovarian
  GI50: 7.79 µM
  TGI: 33.8 µM
OVCAR-5 ovarian
  GI50: 14.9 µM
  TGI: 28.2 µM
OVCAR-8 ovarian
  GI50: 13 µM
  TGI: 27 µM
PC-3 prostate
  GI50: 3.54 µM
  TGI: 18.2 µM
RPMI-8226 leukemia
  GI50: 2.73 µM
  TGI: 8.28 µM
RXF 393 renal
  GI50: 4.98 µM
  TGI: 18.2 µM
SF-268 CNS
  GI50: 8.76 µM
  TGI: 29.2 µM
SF-295 CNS
  GI50: 11.5 µM
  TGI: 23.8 µM
SF-539 CNS
  GI50: 13 µM
  TGI: 25.9 µM
SK-MEL-2 melanoma
  GI50: 11.2 µM
  TGI: 24.2 µM
SK-MEL-28 melanoma
  GI50: 11.3 µM
  TGI: 23.7 µM
SK-MEL-5 melanoma
  GI50: 8.25 µM
  TGI: 20.7 µM
SK-OV-3 ovarian
  GI50: 17 µM
  TGI: 45.9 µM
SN12C renal
  GI50: 11.2 µM
  TGI: 23.4 µM
SNB-19 CNS
  GI50: 11 µM
  TGI: 23.6 µM
SNB-75 CNS
  GI50: 7.59 µM
  TGI: 45 µM
SR leukemia
  GI50: 2.76 µM
  TGI: 11.2 µM
SW-620 colon
  GI50: 7.53 µM
  TGI: 20.9 µM
T-47D breast
  GI50: 3.86 µM
  TGI: 17.8 µM
TK-10 renal
  GI50: 15.2 µM
  TGI: 30.7 µM
U251 CNS
  GI50: 11.6 µM
  TGI: 26 µM
UACC-257 melanoma
  GI50: 17.4 µM
  TGI: 33.1 µM
UACC-62 melanoma
  GI50: 8.4 µM
  TGI: 21.1 µM
UO-31 renal
  GI50: 6.77 µM
  TGI: 19.8 µM
